Measured values taken from PMC6370995, “Phase I study of PF‐04895162, a Kv7 channel opener, reveals unexpected hepatotoxicity in healthy subjects, but not rats or monkeys: clinical evidence of disrupted bile acid homeostasis” (Pharmacology Research & Perspectives, 2019).

Key:
[1] = system: Sprague-Dawley rats; test: 28-day Oral Gavage Toxicity and Toxicokinetic Study in Rats; type: in vivo
Method: In the longer-term studies Sprague-Dawley rats were administered PF-04895162 once daily for 28 days or 6 months at doses up to 100 mg/kg/day. […] The drug was well absorbed into the systemic circulation of male and female rats following oral administration for 6 months.

[2] = system: cynomolgus monkeys; test: 28-day Nasogastric Intubation Toxicity Study in Cynomolgus Monkeys; type: in vivo, cynomolgus monkey
Method: A 28-day nasogastric toxicity study was conducted in cynomolgus monkeys at up to 100 mg/kg/day and a 9-month oral toxicity study with a 3-month interim sacrifice was conducted in cynomolgus monkeys at up to 100 mg/kg/day.

O=C(Cc1ccc(F)cc1)Nn1c(C2CC2)nc2cc(F)ccc2c1=O [PF‐04895162, N‐(2‐cyclopropyl‐7‐fluoro‐4‐oxoquinazolin‐3(4H)‐yl)‐2‐(4‐fluorophenyl)ethanamide]
few feces, incidence ([1]; 100 mg/kg, females): 6/15
head tremors, incidence ([1]; 100 mg/kg, females): 2/15
rough haircoat, incidence ([1]; 100 mg/kg, females): 4/15
clear oral discharge, incidence ([1]; 100 mg/kg, males): 2/15
microscopic findings in the liver ([1]; 100 mg/kg/day for 28 days): No treatment-related microscopic findings
body temperature ([1]; 3, 30, 100 mg/kg, 28 days): no apparent treatment-related effect
clinical pathology data ([1]; 3, 30, 100 mg/kg, 28 days): no apparent treatment-related effects
gross pathology and mean organ weights ([1]; 3, 30, 100 mg/kg, 28 days): no obvious treatment-related gross pathology findings or mean organ weight changes
mortality ([1]; 3, 30, 100 mg/kg, 28 days): no mortality
liver weights ([1]; 28 days, up to 100 mg/kg/day): Increased liver weights
Day 28 mean body weight ([1]; females, 3 mg/kg): 101 % of control
Weeks 1-4 food consumption ([1]; females, 3 mg/kg): 101 % of control
Mean liver weight ([1]; females, 3 mg/kg (cell cut, unit not shown)): 111
Day 28 mean body weight ([1]; females, 30 mg/kg): 97 % of control
Weeks 1-4 food consumption ([1]; females, 30 mg/kg): 97 % of control
Mean liver weight ([1]; females, 30 mg/kg (cell cut, unit not shown)): 106
Day 28 mean body weight ([1]; females, 100 mg/kg): 95 % of control
Weeks 1-4 food consumption ([1]; females, 100 mg/kg): 88 % of control
Day 28 mean body weight ([1]; males, 3 mg/kg): 100 % of the mean control weight
Weeks 1-4 food consumption ([1]; males, 3 mg/kg): 99 % of the mean control food consumption
Day 28 mean body weight ([1]; males, 30 mg/kg): 92 % of the mean control weight
Weeks 1-4 food consumption ([1]; males, 30 mg/kg): 95 % of the mean control food consumption
Day 28 mean body weight ([1]; males, 100 mg/kg): 90 % of the mean control weight
Weeks 1-4 food consumption ([1]; males, 100 mg/kg): 87 % of the mean control food consumption
transaminases ([1]; once daily for 28 days, up to 100 mg/kg/day): No transaminase elevations
vomitus, incidence ([2]; 30 mg/kg/day, females): 1/5
vomitus, incidence ([2]; 30 mg/kg/day, males): 1/5
parent AUC24 at the end of the study ([2]; 100 mg/kg/day, 28 days): mild autoinduction of metabolism
ataxia, incidence ([2]; 100 mg/kg/day, females): 2/5
body tremors, incidence ([2]; 100 mg/kg/day, females): 3/5
dilated pupils, incidence ([2]; 100 mg/kg/day, females): 4/5
hunched posture, incidence ([2]; 100 mg/kg/day, females): 3/5
squinting, incidence ([2]; 100 mg/kg/day, females): 1/5
vomitus, incidence ([2]; 100 mg/kg/day, females): 2/5
ataxia, incidence ([2]; 100 mg/kg/day, males): 2/5
body tremors, incidence ([2]; 100 mg/kg/day, males): 4/5
dilated pupils, incidence ([2]; 100 mg/kg/day, males): 4/5
hunched posture, incidence ([2]; 100 mg/kg/day, males): 3/5
hypoactivity, incidence ([2]; 100 mg/kg/day, males): 2/5
vomitus, incidence ([2]; 100 mg/kg/day, males): 1/5
survival ([2]; 3, 10, 30, 100 mg/kg/day, 28 days): All animals survived to their scheduled termination
mean body (rectal) temperatures ([2]; 30 and 100 mg/kg/day, 1, 2, and/or 4 hours post-dose, first day of treatment): larger decreases in mean body (rectal) temperatures
hematology, coagulation, clinical chemistry, macroscopic and microscopic pathology ([2]; 28 days, up to 100 mg/kg/day): No effect of treatment
